Assay results as given in US20260083865A1, “PROSTATE SPECIFIC MEMBRANE ANTIGEN (PSMA) LIGANDS AND USE THEREOF” (priority 2022, published 2026).
Like-named read-outs stand apart in the source and are kept apart here. Numbered stars: 1 amine (or outer) side, 2 acyl side, 3 side chain; on linkers, the order of the positions; unused ones are H or OH. Bridge positions count the residues as written; N and C are the ends. Square brackets hold non-standard residues; d marks the D form. Side chains are listed from the residue outwards. Peptide text beside a SMILES is read from it. * marks the point of attachment. ξ: configuration not given here. TtdsdLys(DOTA)NH2 = NC(=O)[C@@H](CCCCNC(=O)CN1CCN(CC(=O)O)CCN(CC(=O)O)CCN(CC(=O)O)CC1)NC(=O)CCC(=O)NCCCOCCOCCOCCCN*; X3 = O=C(O)CN1CCN(CC(=O)O)CCN(CC(=O)NCCCOCCOCCOCCCN*)CCN(CC(=O)O)CC1; DOTA = O=C(O)CN1CCN(CC(=O)O)CCN(CC(=O)*)CCN(CC(=O)O)CC1; Phe(3-Cl) = N[C@@H](Cc1cccc(Cl)c1)C(=O)O; Phe(4-Cl) = N[C@@H](Cc1ccc(Cl)cc1)C(=O)O; Propanoyl(3-SO2NH2) = NS(=O)(=O)CCC(=O)*; Phe(4-F) = N[C@@H](Cc1ccc(F)cc1)C(=O)O; X1 = O=C(CC1CCN([*:1])CC1)[*:2]; X6 = O=C(CN1CCN([*:1])CC1)[*:2]; Cit = NC(=O)NCCC[C@H](N)C(=O)O; Suc = O=C(CCC(=O)[*:2])[*:1]; Tle = CC(C)(C)[C@H](N)C(=O)O; Pyridin(2-yl) = c1ccc(*)nc1; Orn = NCCC[C@H](N)C(=O)O; Hexanoyl = CCCCCC(=O)*; AEEA = NCCOCCOCC(=O)O; ξL = CC(C)CC(N)C(=O)O; Aib = CC(C)(N)C(=O)O; CO = O=C([*:1])[*:2]; Guanidino = N=C(N)N*; NHBu = CCCCN*

Key:
[1] = biological target: T1, PSMA-expressing C4-2 cells (Homo sapiens, UniProt Q04609); test: FACS binding assay (competition with 50 nM PSM-0183)
T1 construct: PSMA-expressing C4-2 cells (ATCC, Cat. No. CRL-3314) were cultured in RPMI-1640; host or cells: C4-2 cells
Summary of the method: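 Competition format: fluorescent tracer PSM-0183 (50 nM) displaced from PSMA on C4-2 cells by a test compound titration over 1 h at 4 °C. Bound tracer was quantified as flow-cytometric AF488 median fluorescence after washing. Four-parameter logistic fits of MFI data gave IC50 and pIC50.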

[2] = biological target: T2, Fc-fusion protein of human PSMA (hPSMA-Fc) (Homo sapiens, UniProt Q04609); test: Surface plasmon resonance assay (Biacore T200, single cycle kinetic); assay type: binding
T2 construct: purchased Acro Biosystems PSA-H5264
Summary of the method: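 KD, expressed as pKD, came from 1:1 Langmuir fits of reference- and buffer-blank-subtracted SPR data. The runs were single-cycle kinetics at 25° C in HBST/0.1% DMSO over human PSMA-Fc, captured to ~1000 RU on a peptide-coated CM5 surface and regenerated with 10 mM glycine pH 1.5.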

[3] = FACS binding, PSMA-expressing C4-2 cells, pIC50 category, read-out: pIC50 [C4-2] CAT (converted)
[4] = PSMA SPR assay, hPSMA-Fc, 25° C., pKD category, read-out: pKD CAT (converted)
[5] = pIC50 category of FACS binding, C4-2 cells, read-out: pIC50 [C4-2] CAT (converted)
[6] = pKD category for PSMA SPR activity assay, hPSMA-Fc, 25° C., read-out: pKD CAT (converted)
[7] = FACS binding, C4-2 cells, category, read-out: pIC50 [C4-2] CAT (converted)
[8] = PSMA SPR assay, category, read-out: pKD CAT (converted)

T1 sequence (Q04609 whole entry): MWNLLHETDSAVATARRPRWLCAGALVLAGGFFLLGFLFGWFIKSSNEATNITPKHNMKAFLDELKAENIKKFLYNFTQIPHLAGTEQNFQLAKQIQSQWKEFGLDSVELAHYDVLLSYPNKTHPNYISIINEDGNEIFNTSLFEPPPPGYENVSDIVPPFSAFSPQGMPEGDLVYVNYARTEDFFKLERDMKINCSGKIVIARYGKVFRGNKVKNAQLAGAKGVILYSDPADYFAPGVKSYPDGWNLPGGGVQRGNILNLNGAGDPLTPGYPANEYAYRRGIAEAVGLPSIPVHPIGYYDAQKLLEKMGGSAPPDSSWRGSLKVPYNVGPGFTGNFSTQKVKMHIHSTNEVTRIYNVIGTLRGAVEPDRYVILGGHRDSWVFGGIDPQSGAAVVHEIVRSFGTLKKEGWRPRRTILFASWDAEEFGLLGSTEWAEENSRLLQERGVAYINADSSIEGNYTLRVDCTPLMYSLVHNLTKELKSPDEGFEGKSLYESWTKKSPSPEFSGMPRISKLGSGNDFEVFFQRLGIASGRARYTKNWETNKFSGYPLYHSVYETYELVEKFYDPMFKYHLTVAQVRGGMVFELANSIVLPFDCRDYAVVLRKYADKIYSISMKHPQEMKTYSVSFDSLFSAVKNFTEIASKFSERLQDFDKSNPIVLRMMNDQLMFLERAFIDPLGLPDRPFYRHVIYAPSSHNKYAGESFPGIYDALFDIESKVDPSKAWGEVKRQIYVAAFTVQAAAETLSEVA
T2 sequence (Q04609 44-750 limits assumed): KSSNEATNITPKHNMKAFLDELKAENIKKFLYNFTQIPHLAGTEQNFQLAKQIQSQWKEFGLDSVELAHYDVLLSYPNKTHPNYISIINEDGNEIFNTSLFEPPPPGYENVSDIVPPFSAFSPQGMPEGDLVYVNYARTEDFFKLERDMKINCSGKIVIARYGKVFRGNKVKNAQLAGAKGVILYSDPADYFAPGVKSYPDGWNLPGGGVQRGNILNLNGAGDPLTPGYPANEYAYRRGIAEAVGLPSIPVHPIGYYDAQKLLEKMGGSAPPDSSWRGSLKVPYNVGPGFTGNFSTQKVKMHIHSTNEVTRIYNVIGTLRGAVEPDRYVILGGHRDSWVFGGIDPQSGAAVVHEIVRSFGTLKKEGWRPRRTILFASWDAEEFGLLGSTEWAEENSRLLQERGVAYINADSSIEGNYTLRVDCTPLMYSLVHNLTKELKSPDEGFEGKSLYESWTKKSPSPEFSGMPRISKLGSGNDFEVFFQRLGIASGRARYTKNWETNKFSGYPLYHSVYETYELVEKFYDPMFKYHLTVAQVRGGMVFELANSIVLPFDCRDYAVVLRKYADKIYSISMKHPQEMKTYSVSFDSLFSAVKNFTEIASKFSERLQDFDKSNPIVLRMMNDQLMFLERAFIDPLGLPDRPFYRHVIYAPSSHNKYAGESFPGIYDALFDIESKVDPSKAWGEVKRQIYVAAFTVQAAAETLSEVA

Q: Which results are given for `CC(=O)N[C@H](C(=O)NC(C)(C)C(=O)N[C@@H](Cc1ccc(F)cc1)C(=O)N[C@H]1CSSC[C@@H](C(=O)N[C@H](C(=O)N[C@H](C(N)=O)[C@@H](C)O)C(C)(C)C)NC(=O)[C@H](CC(N)=O)NC(=O)C(C)(C)NC(=O)[C@H](CCCNC(=N)N)NC(=O)[C@H](CCCCN)NC1=O)[C@@H](C)O` [PSM-0294, Ac-Thr-Aib-Pff-[Cys-Lys-Arg-Aib-Asn-Cys]-Tle-Thr-NH2] (Ac-T[Aib][Phe(4-F)]CKR[Aib]NC[Tle]T-NH2; disulfide 4-9)?
A: IC50 [1, 3]: < 200 nM; Kd [2, 4]: < 12.6 nM

Q: How did the IC50 [1, 5] turn out when `CC(=O)N[C@H](C(=O)NC(C)(C)C(=O)N[C@@H](Cc1ccccc1)C(=O)N[C@H]1CSSC[C@@H](C(=O)N[C@H](C(=O)N[C@H](C(N)=O)[C@@H](C)O)C(C)(C)C)NC(=O)[C@H](CC(N)=O)NC(=O)[C@H](CCCCNC(=O)COCCOCCNC(=O)CN2CCN(CC(=O)O)CCN(CC(=O)O)CCN(CC(=O)O)CC2)NC(=O)[C@H](CCCNC(=N)N)NC(=O)[C@H](CCCCN)NC1=O)[C@@H](C)O` [PSM-0401, Ac-Thr-Aib-Phe-[Cys-Lys-Arg-Lys(DOTA-020c)-Asn-Cys]-Tle-Thr-NH2] (Ac-T[Aib]FCKRK([AEEA-DOTA])NC[Tle]T-NH2; disulfide 4-9) was run?
A: < 200 nM

Q: And the Kd [2, 6]?
A: < 12.6 nM

Q: `CCCCNC(=O)N[C@H](C(=O)NC(C)(C)C(=O)N[C@@H](Cc1ccc(Cl)cc1)C(=O)N[C@H]1CSSC[C@@H](C(=O)N[C@H](C(=O)N[C@H](C(=O)N2CCC(CC(=O)N[C@H](CCCCNC(=O)CN3CCN(CC(=O)O)CCN(CC(=O)O)CCN(CC(=O)O)CC3)C(N)=O)CC2)[C@@H](C)O)C(C)(C)C)NC(=O)[C@H](CC(N)=O)NC(=O)C(C)(C)NC(=O)[C@H](CCCNc2ccccn2)NC(=O)[C@H](CCCCN)NC1=O)[C@@H](C)O` [PSM-0427, nBuCAyl-Thr-Aib-Pcf-[Cys-Lys-Opy-Aib-Asn-Cys]-Tle-Thr-Cmp-lys(DOTA)-NH2] ({NHBu-CO}-T[Aib][Phe(4-Cl)]CK[Orn](Pyridin(2-yl))[Aib]NC[Tle]T[X1][dK](DOTA)-NH2; disulfide 4-9) was tested. Which IC50 [1, 5] did it give?
A: < 200 nM

Q: And the Kd [2, 6]?
A: 12.6 to 126 nM

Q: What does the source list for `CC(C)CC(NC(=O)[C@@H]1CSSC[C@H](NC(=O)[C@H](Cc2ccccc2)NC(=O)[C@H](C)NC(=O)[C@@H](NC(=O)CCC(=O)NCCCOCCOCCOCCCNC(=O)CN2CCN(CC(=O)O)CCN(CC(=O)O)CCN(CC(=O)O)CC2)[C@@H](C)O)C(=O)N[C@@H](CCCCN)C(=O)N[C@@H](CCCNC(=N)N)C(=O)N[C@@H](C)C(=O)N[C@@H](CC(N)=O)C(=O)N1)C(=O)N[C@H](C(N)=O)[C@@H](C)O` (stereo partly drawn) [PSM-0305, DOTA-Ttds-Thr-Ala-Phe-[Cys-Lys-Arg-Ala-Asn-Cys]-Lou-Thr-NH2] ({X3-Suc}-TAFCKRANC[ξL]T-NH2; disulfide 4-9)?
A: IC50 [1, 3]: 200 to 1260 nM; Kd [2, 4]: 126 to 501 nM

Q: What does the source list for `CC(=O)NC(C)(C)C(=O)N[C@@H](Cc1ccc(Cl)cc1)C(=O)N[C@H]1CSSC[C@@H](C(=O)N[C@H](C(=O)N[C@H](C(=O)N2CCC(CC(=O)N[C@H](CCCCNC(=O)CN3CCN(CC(=O)O)CCN(CC(=O)O)CCN(CC(=O)O)CC3)C(N)=O)CC2)[C@@H](C)O)C(C)(C)C)NC(=O)[C@H](CC(N)=O)NC(=O)C(C)(C)NC(=O)[C@H](CCC(=O)NC(=N)N)NC(=O)[C@H](CCCCN)NC1=O` [PSM-0494, Ac-Aib-Pcf-[Cys-Lys-Gln(Gu)-Aib-Asn-Cys]-Tle-Thr-Cmp-lys(DOTA)-NH2] (Ac-[Aib][Phe(4-Cl)]CKE(Guanidino)[Aib]NC[Tle]T[X1][dK](DOTA)-NH2; disulfide 3-8)?
A: IC50 [1]: < 200 nM; Kd [2]: 12.6 to 126 nM

Q: With `C[C@@H](O)[C@H](NC(=O)[C@@H](NC(=O)[C@@H]1CSSC[C@H](NC(=O)[C@H](Cc2cccc(Cl)c2)NC(=O)C(C)(C)NC(=O)[C@@H](NC(=O)CC2CCN(C(=O)CN3CCN(CC(=O)O)CCN(CC(=O)O)CCN(CC(=O)O)CC3)CC2)[C@@H](C)O)C(=O)N[C@@H](CCCCN)C(=O)N[C@@H](CCCNC(N)=O)C(=O)NC(C)(C)C(=O)N[C@@H](CC(N)=O)C(=O)N1)C(C)(C)C)C(N)=O` [PSM-0431, DOTA-Cmp-Thr-Aib-Mcf-[Cys-Lys-Cit-Aib-Asn-Cys]-Tle-Thr-NH2] ({DOTA}-[X1]T[Aib][Phe(3-Cl)]CK[Cit][Aib]NC[Tle]T-NH2; disulfide 5-10) as the compound, how does the IC50 [1, 5] read?
A: 200 to 1260 nM

Q: And the Kd [2, 6]?
A: < 12.6 nM

Q: How did the IC50 [1, 7] turn out when `CCCCCC(=O)N[C@H](C(=O)N[C@@H](C)C(=O)N[C@@H](Cc1ccccc1)C(=O)N[C@H]1CSSC[C@@H](C(=O)N[C@H](C(=O)N[C@H](C(=O)N[C@@H](CC(=O)O)C(=O)NCCCOCCOCCOCCCNC(=O)CCC(=O)N[C@H](CCCCNC(=O)CN2CCN(CC(=O)O)CCN(CC(=O)O)CCN(CC(=O)O)CC2)C(N)=O)[C@@H](C)O)C(C)(C)C)NC(=O)[C@H](CC(N)=O)NC(=O)[C@H](C)NC(=O)[C@H](CCCNC(=N)N)NC(=O)[C@H](CCCCN)NC1=O)[C@@H](C)O` [PSM-0568, Hex-Thr-Ala-Phe-[Cys-Lys-Arg-Ala-Asn-Cys]-Tle-Thr-Asp-Ttds-lys(DOTA)-NH2] (Hexanoyl-TAFCKRANC[Tle]TD-{TtdsdLys(DOTA)NH2}; disulfide 4-9) was run?
A: < 200 nM

Q: And the Kd [2, 8]?
A: 12.6 to 126 nM

Q: Which results are given for `C[C@@H](O)[C@H](NC(=O)[C@@H](NC(=O)[C@@H]1CSSC[C@H](NC(=O)[C@H](Cc2cccc(Cl)c2)NC(=O)C(C)(C)NC(=O)[C@@H](NC(=O)CC2CCN(C(=O)CN3CCN(CC(=O)O)CCN(CC(=O)O)CCN(CC(=O)O)CC3)CC2)[C@@H](C)O)C(=O)N[C@@H](CCCCN)C(=O)N[C@@H](CCCNC(=N)N)C(=O)NC(C)(C)C(=O)N[C@@H](CC(N)=O)C(=O)N1)C(C)(C)C)C(N)=O` [PSM-0583, DOTA-Cmp-Thr-Aib-Mcf-[Cys-Lys-Arg-Aib-Asn-Cys]-Tle-Thr-NH2] ({DOTA}-[X1]T[Aib][Phe(3-Cl)]CKR[Aib]NC[Tle]T-NH2; disulfide 5-10)?
A: IC50 [1, 7]: < 200 nM; Kd [2, 8]: < 12.6 nM

Q: With `CC(=O)N[C@H](C(=O)NC(C)(C)C(=O)N[C@@H](Cc1ccccc1)C(=O)N[C@@H]1CSSC[C@H](C(=O)N[C@H](C(=O)N[C@H](C(N)=O)[C@@H](C)O)C(C)(C)C)NC(=O)[C@H](CC(N)=O)NC(=O)C(C)(C)NC(=O)[C@H](CCCNC(=N)N)NC(=O)[C@H](CCCCN)NC1=O)[C@@H](C)O` [PSM-0327, Ac-Thr-Aib-Phe-[cys-Lys-Arg-Aib-Asn-cys]-Tle-Thr-NH2] (Ac-T[Aib]F[dC]KR[Aib]N[dC][Tle]T-NH2; disulfide 4-9) as the compound, how does the IC50 [1, 3] read?
A: > 3160 nM

Q: What about the Kd [2, 4] of the same compound?
A: > 501 nM

Q: What does the source list for `C[C@@H](O)[C@H](NC(=O)[C@@H](NC(=O)[C@@H]1CSSC[C@H](NC(=O)[C@H](Cc2ccccc2)NC(=O)C(C)(C)NC(=O)CN2CCN(C(=O)CN3CCN(CC(=O)O)CCN(CC(=O)O)CCN(CC(=O)O)CC3)CC2)C(=O)N[C@@H](CCCCN)C(=O)N[C@@H](CCCNC(=N)N)C(=O)NC(C)(C)C(=O)N[C@@H](CC(N)=O)C(=O)N1)C(C)(C)C)C(N)=O` [PSM-0413, DOTA-PPAc-Aib-Phe-[Cys-Lys-Arg-Aib-Asn-Cys]-Tle-Thr-NH2] ({DOTA}-[X6][Aib]FCKR[Aib]NC[Tle]T-NH2; disulfide 4-9)?
A: IC50 [1, 5]: < 200 nM; Kd [2, 6]: 12.6 to 126 nM

Q: With `C[C@@H](O)[C@H](NC(=O)[C@@H](NC(=O)[C@@H]1CSSC[C@H](NC(=O)[C@H](Cc2ccccc2)NC(=O)C(C)(C)NC(=O)CCS(N)(=O)=O)C(=O)N[C@@H](CCCCN)C(=O)N[C@@H](CCCNC(=N)N)C(=O)NC(C)(C)C(=O)N[C@@H](CC(N)=O)C(=O)N1)C(C)(C)C)C(N)=O` [PSM-0224, SaPr-Aib-Phe-[Cys-Lys-Arg-Aib-Asn-Cys]-Tle-Thr-NH2] ({Propanoyl(3-SO2NH2)}-[Aib]FCKR[Aib]NC[Tle]T-NH2; disulfide 3-8) as the compound, how does the IC50 ([1]; FACS binding, C4-2 cells, competition with 50 nM PSM-0183, category, read-out: pIC50 [C4-2] CAT (converted)) read?
A: < 200 nM

Q: What about the Kd ([2]; SPR, hPSMA-Fc, single cycle kinetic, 25° C., category, read-out: pKD CAT (converted)) of the same compound?
A: < 12.6 nM
